Source: US20210139484A1, “DIHYDROISOQUINOLINE-2(1H)-CARBOXAMIDE AND RELATED COMPOUNDS AND THEIR USE IN TREATING MEDICAL CONDITIONS” (GOSSAMER BIO SERVICES, INC., priority 2018, published 2021)

Biological target: T1, human HPK1 protein (Homo sapiens, UniProt Q92918)
T1 construct: recombinant human HPK1 protein (a.a. 1-346) was expressed in Sf9 insect cells; GST (N); purchased Signalchem M23-11G; host or cells: Sf9 insect cells (baculovirus)
T1 sequence (Q92918 1-346): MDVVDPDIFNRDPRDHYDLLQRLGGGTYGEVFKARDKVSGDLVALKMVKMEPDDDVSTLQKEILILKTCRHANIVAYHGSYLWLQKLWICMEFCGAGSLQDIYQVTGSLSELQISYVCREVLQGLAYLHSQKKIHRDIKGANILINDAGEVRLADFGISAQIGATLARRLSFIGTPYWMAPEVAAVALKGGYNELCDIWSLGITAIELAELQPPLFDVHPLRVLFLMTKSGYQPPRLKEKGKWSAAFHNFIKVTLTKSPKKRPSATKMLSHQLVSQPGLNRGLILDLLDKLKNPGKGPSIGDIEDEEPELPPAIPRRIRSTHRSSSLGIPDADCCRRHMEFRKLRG
Assay: Human HPK1 protein TR-FRET assay
Type: biochemical
Conditions: 1 mM ATP, Table 20
How it was run: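 GST-tagged HPK1 (a.a. 1-346, Sf9-expressed) at 10 nM phosphorylated 100 nM ULight CREBtide with 1 mM ATP in Tris pH 7.5, MgCl2, NP-40, DTT, 1% DMSO, 60 minutes at room temperature. Phospho-Ser133 detected by Eu-antibody TR-FRET (665/615 nm ratio); IC50 from 4-parameter fit against DMSO control.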

CCN1CCN(Cc2ccc(NC(=O)N3CCc4ncc(Oc5cccc6[nH]ccc56)cc4C3C)cc2C(F)(F)F)CC1 (centres unmarked) [XI-12]
IC50: > 10000 nM

CN1CCN(Cc2ncc(NC(=O)N3CCc4ccc(Oc5c(F)cnc6[nH]c(-c7cnn(C)c7)cc56)cc4C3)cc2C(F)(F)F)CC1 [XII-1]
IC50: < 500 nM

CCN1CCN(Cc2ccc(NC(=O)N3CCc4ccc(Oc5c(F)cnc6[nH]c(-c7cnn(C)c7)cc56)cc4[C@@H]3C)cc2C(F)(F)F)CC1 [XII-2]
IC50: < 500 nM

C[C@H]1c2cc(Oc3c(F)cnc4[nH]c(-c5cnn(C)c5)cc34)ccc2CCN1C(=O)Nc1ccc(CN2CCN(C)CC2)c(C(F)(F)F)c1 [XII-3]
IC50: < 500 nM

CN1CC[C@@H](Oc2ncc(NC(=O)N3CCc4ccc(Oc5c(F)cnc6[nH]c(-c7cnn(C)c7)cc56)cc4C3)cc2C(F)(F)F)[C@@H](O)C1 [XII-4]
IC50: < 500 nM

CN1CCN(Cc2ccc(NC(=O)N3CCc4ccc(Oc5c(F)cnc6[nH]c(-c7ccncc7)cc56)cc4C3)cc2C(F)(F)F)CC1 [XII-5]
IC50: < 500 nM

CN1CCN(Cc2ncc(NC(=O)N3CCc4ccc(Oc5c(F)cnc6[nH]c(-c7cccnc7)cc56)cc4C3)cc2C(F)(F)F)CC1 [XII-6]
IC50: < 500 nM

CN1CCN(Cc2ccc(NC(=O)N3CCc4ccc(Oc5c(F)cnc6[nH]c(-c7cccnc7)cc56)cc4C3)cc2C(F)(F)F)CC1 [XII-7]
IC50: < 500 nM

CN1CCN(Cc2ncc(NC(=O)N3CCc4ccc(Oc5c(F)cnc6[nH]c(-c7cn[nH]c7)cc56)cc4C3)cc2C(F)(F)F)CC1 [XII-8]
IC50: < 500 nM

CN1CCN(Cc2ccc(NC(=O)N3CCc4ccc(Oc5c(F)cnc6[nH]c(-c7cn[nH]c7)cc56)cc4C3)cc2C(F)(F)F)CC1 [XII-9]
IC50: < 500 nM

CN1CCN(Cc2ncc(NC(=O)N3CCc4ccc(Oc5c(F)cnc6[nH]c(-c7ccncc7)cc56)cc4C3)cc2C(F)(F)F)CC1 [XII-10]
IC50: < 500 nM

C[C@H]1CN(C(=O)Nc2cnc(CN3CCN(C)CC3)c(C(F)(F)F)c2)Cc2cc(Oc3c(F)cnc4[nH]c(-c5cnn(C)c5)cc34)ccc21 [XII-11]
IC50: < 500 nM

C[C@H]1CN(C(=O)Nc2ccc(CN3CCN(C)CC3)c(C(F)(F)F)c2)Cc2cc(Oc3c(F)cnc4[nH]c(-c5cnn(C)c5)cc34)ccc21 [XII-12]
IC50: < 500 nM

CN1CCC(Oc2ncc(NC(=O)N3CCc4ccc(Oc5c(F)cnc6[nH]c(-c7cnn(C)c7)cc56)cc4C3)cc2C(F)(F)F)CC1 [XII-13]
IC50: < 500 nM

Cn1cc(-c2cc3c(Oc4ccc5c(c4)CN(C(=O)Nc4ccc(CN6CCN(CCO)CC6)c(C(F)(F)F)c4)CC5)c(F)cnc3[nH]2)cn1 [XII-14]
IC50: < 500 nM

CCN1CCN(Cc2ccc(NC(=O)N3CCc4ccc(Oc5c(F)cnc6[nH]c(-c7cnn(C)c7)cc56)cc4C3)cc2C(F)(F)F)CC1 [XII-15]
IC50: < 500 nM

CN1CCN(Cc2cc(F)c(NC(=O)N3CCc4ccc(Oc5c(F)cnc6[nH]c(-c7cnn(C)c7)cc56)cc4C3)cc2C(F)(F)F)CC1 [XII-16]
IC50: < 500 nM

CC[C@@H]1CN(C)CC[C@H]1Oc1ncc(NC(=O)N2CCc3ccc(Oc4ccnc5[nH]c(C)cc45)cc3[C@@H]2C)cc1C(F)(F)F [XIII-1]
IC50: < 500 nM

CCN1CCN(Cc2ccc(NC(=O)N3CCc4ccc(Oc5ccnc6[nH]c(CO)cc56)cc4[C@@H]3C)cc2C(F)(F)F)CC1 [XIII-2]
IC50: < 500 nM

C[C@H]1c2cc(Oc3ccnc4[nH]c(CO)cc34)ccc2CCN1C(=O)Nc1cnc(OC2CCN(C)CC2)c(C(F)(F)F)c1 [XIII-3]
IC50: < 500 nM

C[C@H]1c2cc(Oc3ccnc4[nH]c(C5(O)COC5)cc34)ccc2CCN1C(=O)Nc1cnc(OC2CCN(C)CC2)c(C(F)(F)F)c1 [XIII-4]
IC50: < 500 nM

C[C@H]1c2cc(Oc3ccnc4[nH]c(CO)cc34)ccc2CCN1C(=O)Nc1ccc(CN2CCN(CCO)CC2)c(C(F)(F)F)c1 [XIII-5]
IC50: < 500 nM

C[C@H]1c2cc(Oc3ccnc4[nH]c(C5(O)COC5)cc34)ccc2CCN1C(=O)Nc1ccc(CN2CCN(CCO)CC2)c(C(F)(F)F)c1 [XIII-6]
IC50: < 500 nM

C[C@H]1c2cc(Oc3ccnc4[nH]c(C5(O)COC5)cc34)ccc2CCN1C(=O)Nc1ccc(CN2CCNCC2)c(C(F)(F)F)c1 [XIII-7]
IC50: < 500 nM

C[C@H]1c2cc(Oc3ccnc4[nH]c(CO)cc34)ccc2CCN1C(=O)Nc1ccc(CN2CCNCC2)c(C(F)(F)F)c1 [XIII-8]
IC50: < 500 nM

C[C@H]1c2cc(Oc3ccnc4[nH]c(CO)cc34)ccc2CCN1C(=O)Nc1ccc(CN2CCN(C)CC2)c(C(F)F)c1 [XIII-9]
IC50: < 500 nM

C[C@H]1c2cc(Oc3ccnc4[nH]c(C5(O)COC5)cc34)ccc2CCN1C(=O)Nc1ccc(CN2CCN(C)CC2)c(C(F)F)c1 [XIII-10]
IC50: < 500 nM

C[C@H]1c2cc(Oc3ccnc4[nH]c(C5(O)COC5)cc34)ccc2CCN1C(=O)Nc1ccc(CN2CCN(CCO)CC2)c(C(F)F)c1 [XIII-11]
IC50: < 500 nM

C[C@H]1c2cc(Oc3ccnc4[nH]c(CO)cc34)ccc2CCN1C(=O)Nc1ccc(CN2CCN(CCO)CC2)c(C(F)F)c1 [XIII-12]
IC50: < 500 nM

CCN1CCN(Cc2ccc(NC(=O)N3CCc4ccc(Oc5cc(NC(=O)OC)ncc5F)cc4[C@@H]3C)cc2C(F)(F)F)CC1 [XIII-13]
IC50: < 500 nM

CCN1CCN(Cc2ccc(NC(=O)N3CCc4ccc(Oc5cc(NC(=O)c6ccnnc6)ncc5F)cc4[C@@H]3C)cc2C(F)(F)F)CC1 [XIII-14]
IC50: < 500 nM

CCN1CCN(Cc2ccc(NC(=O)N3CCc4ccc(Oc5cc(NC(=O)C6CC6)ncc5F)cc4[C@@H]3C)cc2C(F)(F)F)CC1 [XIII-15]
IC50: < 500 nM

CCN1CCN(Cc2ccc(NC(=O)N3CCc4ccc(Oc5c(F)cnc6[nH]c(C7(O)COC7)cc56)cc4[C@@H]3C)cc2C(F)(F)F)CC1 [XIII-16]
IC50: < 500 nM

CCN1CCN(Cc2ccc(NC(=O)N3CCc4ccc(Oc5cc(NC(=O)c6cnn(C)c6)ncc5F)cc4[C@@H]3C)cc2C(F)(F)F)CC1 [XIII-17]
IC50: < 500 nM

CCC1CN(C(=O)Nc2ccc(CN3CCN(CC)CC3)c(C(F)(F)F)c2)Cc2cc(Oc3ncnc4[nH]c(C)cc34)cnc21 (centres unmarked) [XIV-3]
IC50: < 500 nM

CCC1CN(C(=O)Nc2ccc(CN3CCN(CC)CC3)c(C(F)(F)F)c2)Cc2cc(Oc3ncnc4[nH]c(C)cc34)cnc21 (centres unmarked) [XIV-4]
IC50: < 500 nM

CC[C@@H]1CN(C(=O)Nc2cnc(CN3CCN(CC)CC3)c(C(F)(F)F)c2)Cc2cc(Oc3ccnc4[nH]ccc34)cnc21 [XIV-9]
IC50: < 500 nM

CC[C@H]1CN(C(=O)Nc2cnc(CN3CCN(CC)CC3)c(C(F)(F)F)c2)Cc2cc(Oc3ccnc4[nH]ccc34)cnc21 [XIV-10]
IC50: < 500 nM

CCN1CCN(Cc2ccc(NC(=O)N3Cc4cc(Oc5ccnc6[nH]c(CO)cc56)cnc4[C@H](C)C3)cc2C(F)(F)F)CC1 [XIV-14]
IC50: < 500 nM

CC[C@@H]1CN(C(=O)Nc2ccc(CN3CCN(CC)CC3)c(C(F)(F)F)c2)Cc2cc(Oc3ccnc4[nH]c(C#N)cc34)cnc21 [XIV-19]
IC50: < 500 nM

CC[C@H]1CN(C(=O)Nc2ccc(CN3CCN(CC)CC3)c(C(F)(F)F)c2)Cc2cc(Oc3ccnc4[nH]c(C#N)cc34)cnc21 [XIV-20]
IC50: < 500 nM

CC[C@H]1CN(C(=O)Nc2ccc(CN3CCN(CC)CC3)c(C(F)(F)F)c2)Cc2cc(Oc3ccnc4[nH]c(CCOC)cc34)cnc21 [XIV-22]
IC50: < 500 nM

CC[C@@H]1CN(C(=O)Nc2ccc(CN3CCN(CC)CC3)c(C(F)(F)F)c2)Cc2cc(Oc3ccnc4[nH]c(C5CC5)cc34)cnc21 [XIV-23]
IC50: < 500 nM

CC[C@@H]1CN(C(=O)Nc2cnc(CN3CCN(CC)CC3)c(C(F)(F)F)c2)Cc2cc(Oc3ccnc4[nH]c(CCOC)cc34)cnc21 [XIV-26]
IC50: < 500 nM

CC[C@@H]1CN(C(=O)Nc2ccc(CN3CCN(CC)CC3)c(C(F)(F)F)c2)Cc2cc(Oc3ccnc4[nH]c(CO)cc34)cnc21 [XIV-28]
IC50: < 500 nM

CC[C@@H]1CN(C(=O)Nc2cnc(OC3CCN(C)CC3)c(C(F)(F)F)c2)Cc2cc(Oc3ccnc4[nH]c(CCOC)cc34)cnc21 [XIV-34]
IC50: < 500 nM

CC[C@H]1CN(C(=O)Nc2cnc(OC3CCN(C)CC3)c(C(F)(F)F)c2)Cc2cc(Oc3ccnc4[nH]c(CCOC)cc34)cnc21 [XIV-35]
IC50: < 500 nM

CC[C@@H]1CN(C(=O)Nc2ccc(CN3CCN(CC)CC3)c(C(F)(F)F)c2)Cc2cc(Oc3ncnc4[nH]c(C5CC5)cc34)cnc21 [XIV-37]
IC50: < 500 nM

CC[C@@H]1CN(C(=O)Nc2ccc(CN3CCN(CC)CC3)c(C(F)(F)F)c2)Cc2cc(Oc3c(F)cnc4[nH]c(-c5cnn(C)c5)cc34)cnc21 [XIV-39]
IC50: < 500 nM

CCC1CN(C(=O)Nc2ccc(CN3CCN(CC)CC3)c(C(F)(F)F)c2)Cc2cc(Oc3ccnc4[nH]c(C(C)O)cc34)cnc21 (centres unmarked) [XIV-40]
IC50: < 500 nM

CCC1CN(C(=O)Nc2ccc(CN3CCN(CC)CC3)c(C(F)(F)F)c2)Cc2cc(Oc3ccnc4[nH]c(C(C)OC)cc34)cnc21 (centres unmarked) [XIV-41]
IC50: 5000 to 10000 nM

CC[C@@H]1CN(C(=O)Nc2cnc(OC3CCN(C)CC3)c(C(F)(F)F)c2)Cc2cc(Oc3ccnc4[nH]c(C#N)cc34)cnc21 [XIV-42]
IC50: < 500 nM

CC[C@@H]1CN(C(=O)Nc2cnc(OC3CCN(C)CC3)c(C(F)(F)F)c2)Cc2cc(Oc3ccnc4[nH]c(C5CC5)cc34)cnc21 [XIV-43]
IC50: < 500 nM

CC[C@@H]1CN(C(=O)Nc2ccc(CN3CCNCC3)c(C(F)(F)F)c2)Cc2cc(Oc3ccnc4[nH]c(CO)cc34)cnc21 [XIV-45]
IC50: < 500 nM

CC[C@H]1CN(C(=O)Nc2ccc(CN3CCN(C)CC3)c(C(F)(F)F)c2)Cc2cc(Oc3ccnc4[nH]c(CO)cc34)cnc21 [XIV-46]
IC50: < 500 nM

CC[C@H]1CN(C(=O)Nc2ccc(CN3CCN(C)CC3)c(C(F)F)c2)Cc2cc(Oc3ccnc4[nH]c(CO)cc34)cnc21 [XIV-47]
IC50: < 500 nM
